Assay results as given in patent US4826814A, “Tripeptide derivatives” (Dainippon Pharmaceutical Co., Ltd., priority 1986, dated 1989).
pIC50: −log10 of the molar value. Starred links: 1 amine or outer side, 2 acyl side, 3 side chain; linkers in the order of their positions; H or OH if unused. Non-standard residues stand in square brackets, D forms with d. Residues, ends and D or L forms follow the SMILES beside them. *: point of attachment. d(γGlu) = O=C(O)[C@@H](CCC(=O)[*:2])N[*:1]; Oic = O=C(O)[C@@H]1C[C@@H]2CCCC[C@@H]2N1; Nicotinoyl = O=C(c1cccnc1)*; Orn = NCCC[C@H](N)C(=O)O; Cbz = O=C(OCc1ccccc1)*; Bz = O=C(c1ccccc1)*

Each molecule was assayed against T1, ACE preparation (rabbit lung) (Oryctolagus cuniculus, UniProt P12822) (assay: In vitro ACE inhibitory activity (hippuryl-L-histidyl-L-leucine substrate)). Conditions: 37° C., 30 minutes, pH 8.3.
T1 construct: an ACE preparation (rabbit lung); from tissue; host or cells: rabbit lung
T1 sequence (P12822 34-1310): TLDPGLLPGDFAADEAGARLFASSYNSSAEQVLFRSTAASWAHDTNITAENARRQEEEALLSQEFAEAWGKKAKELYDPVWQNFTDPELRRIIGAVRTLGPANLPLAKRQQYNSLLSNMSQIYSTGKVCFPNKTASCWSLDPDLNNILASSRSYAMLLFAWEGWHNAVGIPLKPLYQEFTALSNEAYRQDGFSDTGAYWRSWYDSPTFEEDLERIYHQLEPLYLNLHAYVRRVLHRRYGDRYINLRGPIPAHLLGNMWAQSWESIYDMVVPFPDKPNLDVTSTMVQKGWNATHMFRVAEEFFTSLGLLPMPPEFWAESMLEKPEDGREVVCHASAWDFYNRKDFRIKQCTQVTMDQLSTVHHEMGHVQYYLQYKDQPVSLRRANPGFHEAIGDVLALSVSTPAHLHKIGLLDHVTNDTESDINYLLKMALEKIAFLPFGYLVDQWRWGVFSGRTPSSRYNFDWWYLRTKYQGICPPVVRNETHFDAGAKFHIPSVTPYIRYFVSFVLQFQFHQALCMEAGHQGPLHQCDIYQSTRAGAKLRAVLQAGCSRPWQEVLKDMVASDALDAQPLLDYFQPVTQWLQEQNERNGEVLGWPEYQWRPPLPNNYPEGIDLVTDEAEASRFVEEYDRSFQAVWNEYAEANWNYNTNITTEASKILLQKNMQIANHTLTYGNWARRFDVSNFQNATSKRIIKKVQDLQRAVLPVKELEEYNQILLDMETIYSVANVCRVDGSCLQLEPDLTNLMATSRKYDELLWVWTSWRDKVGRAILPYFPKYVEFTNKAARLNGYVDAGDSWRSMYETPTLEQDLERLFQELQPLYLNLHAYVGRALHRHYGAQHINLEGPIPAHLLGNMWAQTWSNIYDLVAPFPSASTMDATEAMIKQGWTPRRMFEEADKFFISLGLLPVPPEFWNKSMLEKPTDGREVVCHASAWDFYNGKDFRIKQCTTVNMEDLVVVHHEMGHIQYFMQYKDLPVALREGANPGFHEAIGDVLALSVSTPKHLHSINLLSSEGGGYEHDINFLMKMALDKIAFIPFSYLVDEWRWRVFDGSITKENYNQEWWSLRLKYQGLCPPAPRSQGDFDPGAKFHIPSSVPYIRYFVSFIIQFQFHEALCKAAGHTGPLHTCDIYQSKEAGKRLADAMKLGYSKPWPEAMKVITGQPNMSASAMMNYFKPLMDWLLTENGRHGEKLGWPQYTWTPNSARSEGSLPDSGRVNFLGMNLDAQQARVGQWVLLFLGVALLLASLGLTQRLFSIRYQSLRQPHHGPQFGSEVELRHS
Assay type: biochemical
Method: The assay medium contained an ACE preparation (rabbit lung), synthetic substrate (hippuryl-L-histidyl-L-leucine 5 mM), NaCl (300 mM) and phosphate buffer (100 mM, pH 8.3). It was mixed to a final volume of 0.300 ml and incubated at 37° C. for 30 minutes in the presence or absence of test compounds. After the reaction was terminated by adding 300 μl of 1N HCl, hippuric acid formed was extracted with 2 volume of ethyl acetate. After ethyl acetate was evaporated and distilled water was added, the hippuric acid was determined from its absorbance at 228 nm by spectrophotometer (Hitachi 100-41).
The degree of ACE inhibition was calculated from activities with and without test compounds. The IC50 value (molar concentration required for the 50% inhibition of ACE activity) was obtained from a dose-inhibition curve.

| pIC50 | Structure (SMILES) |
| --- | --- |
| 8.35 | NCCCC[C@H](NC(=O)c1cccs1)C(=O)N[C@H](CCC(=O)N1[C@H](C(=O)O)C[C@@H]2CCCC[C@@H]21)C(=O)O [Example 52, (2S,3aS,7aS)-1-[N^2-(2-Thiophenecarbonyl)-L-lysyl-gamma-D-glutamyl]octahydro-1H-indole-2-carboxylic acid] |
| 8.09 | NCCCC[C@H](NC(=O)[C@@H]1Cc2ccccc2N1)C(=O)N[C@H](CCC(=O)N1[C@H](C(=O)O)C[C@@H]2CCCC[C@@H]21)C(=O)O [Example 56, (2S,3aS,7aS)-1-[N^2-(Indoline-2(S)-carbonyl)-L-lysyl-gamma-D-glutamyl]octahydro-1H-indole-2-carboxylic acid] |
| 7.66 | NCCCC[C@H](NC(=O)C1CCC1)C(=O)N[C@H](CCC(=O)N1c2ccccc2C[C@H]1C(=O)O)C(=O)O [Example 36, 1-(N^2 -Cyclobutanecarbonyl-L-lysyl-gamma-D-glutamyl)-indoline-2(S)-carboxylic acid] |
| 7.68 | NCCCC[C@H](NC(=O)[C@H]1CCCN1)C(=O)N[C@H](CCC(=O)N1c2ccccc2C[C@H]1C(=O)O)C(=O)O [Example 17, 1-(D-Prolyl-L-lysyl-gamma-D-glutamyl)indoline-2(S)-carboxylic acid] |
| 7.44 | NCCCC[C@H](NC(=O)[C@@H]1CCCN1)C(=O)N[C@H](CCC(=O)N1c2ccccc2C[C@H]1C(=O)O)C(=O)O [Example 9, 1-(L-prolyl-L-lysyl-gamma-D-glutamyl)indoline-2(S)-carboxylic acid] |
| 8.34 | NCCCC[C@H](NC(=O)c1cnc2ccccc2c1)C(=O)N[C@H](CCC(=O)N1[C@H](C(=O)O)C[C@@H]2CCCC[C@@H]21)C(=O)O [Example 53, (2S,3aS,7aS)-1-[N^2-(3-Quinolinecarbonyl)-L-lysyl-gamma-D-glutamyl]octahydro-1H-indole-2-carboxylic acid] |
| 7.89 | NCCCC[C@H](NC(=O)OCC1CCCCC1)C(=O)N[C@H](CCC(=O)N1c2ccccc2C[C@H]1C(=O)O)C(=O)O [Example 16, 1-(N^2 -Cyclohexylmethoxycarbonyl-L-lysyl-gamma-D-glutamyl)indoline-2(S)-carboxylic acid] |
| 8.34 | NCCCC[C@H](NC(=O)OC1CCC1)C(=O)N[C@H](CCC(=O)N1[C@H](C(=O)O)C[C@@H]2CCCC[C@@H]21)C(=O)O [Example 32, (2S,3aS,7aS)-1-[N^2-(Cyclobutyloxycarbonyl)-L-lysyl-gamma-D-glutamyl]octahydro-1H-indole-2-carboxylic acid] |
| 7.57 | NCCCC[C@H](NC(=O)C1CCCCC1)C(=O)N[C@H](CCC(=O)N1c2ccccc2C[C@H]1C(=O)O)C(=O)O [Example 71, 1-(N^2 -Cyclohexylcarbonyl-L-lysyl-gamma-D-glutamyl)indoline-2(S)-carboxylic acid] |
| 8.31 | NCCC[C@H](NC(=O)OCc1ccccc1)C(=O)N[C@H](CCC(=O)N1[C@H](C(=O)O)C[C@@H]2CCCC[C@@H]21)C(=O)O [Example 14, (2S,3aS,7aS)-1-(N^2 -Benzyloxycarbonyl-L-ornithinyl-gamma-D-glutamyl)octahydro-1H-indole-2-carboxylic acid] (Cbz-[Orn]-[d(γGlu)]-[Oic]-OH) |
| 7.96 | NCCCC[C@H](NC(=O)c1cccnc1)C(=O)N[C@H](CCC(=O)N1c2ccccc2C[C@H]1C(=O)O)C(=O)O [Example 35, 1-(N^2 -Nicotinoyl-L-lysyl-gamma-D-glutamyl)indoline-2(S)-carboxylic acid] |
| 8.18 | NCCCC[C@H](NC(=O)OCc1ccc2c(c1)OCO2)C(=O)N[C@H](CCC(=O)N1c2ccccc2C[C@H]1C(=O)O)C(=O)O [Example 74, 1-[N^2-(3,4-Methylenedioxybenzyloxycarbonyl)-L-lysyl-gamma-D-glutamyl]indoline-2(S)-carboxylic acid] |
| 7.80 | NCCCC[C@H](NC(=O)c1cnccn1)C(=O)N[C@H](CCC(=O)N1c2ccccc2C[C@H]1C(=O)O)C(=O)O [Example 68, 1-(N^2 -Pyrazinoyl-L-lysyl-gamma-D-glutamyl)indoline-2(S)-carboxylic acid] |
| 8.34 | NCCCC[C@H](NC(=O)OCCc1ccccc1)C(=O)N[C@H](CCC(=O)N1[C@H](C(=O)O)C[C@@H]2CCCC[C@@H]21)C(=O)O [Example 26, (2S,3aS,7aS)-1-[N^2 -Phenethyloxycarbonyl-L-lysyl-gamma-D-glutamyl]octahydro-1H-indole-2-carboxylic acid] |
| 7.85 | NCCCC[C@H](NC(=O)OC1CCC1)C(=O)N[C@H](CCC(=O)N1c2ccccc2C[C@H]1C(=O)O)C(=O)O [Example 33, 1-(N^2 -Cyclobutyloxycarbonyl-L-lysyl-gamma-D-glutamyl)indoline-2(S)-carboxylic acid] |
| 8.17 | NCCCC[C@H](NC(=O)c1ccccn1)C(=O)N[C@H](CCC(=O)N1[C@H](C(=O)O)C[C@@H]2CCCC[C@@H]21)C(=O)O [Example 20, (2S,3aS,7aS)-1-[N^2-(Pyridine-2-carbonyl)-L-lysyl-gamma-D-glutamyl]octahydro-1H-indole-2-carboxylic acid] |
| 8.21 | NCCCC[C@H](NC(=O)c1ccc(Cl)cc1)C(=O)N[C@H](CCC(=O)N1[C@H](C(=O)O)C[C@@H]2CCCC[C@@H]21)C(=O)O [Example 55, (2S,3aS,7aS)-1-[N^2-(4-Chlorobenzoyl)-L-lysyl-gamma-D-glutamyl]octahydro-1H-indole-2-carboxylic acid] |
| 7.02 | NCCCC[C@H](NC(=O)C=Cc1c[nH]cn1)C(=O)N[C@H](CCC(=O)N1c2ccccc2C[C@H]1C(=O)O)C(=O)O [Example 10, 1-{N^2-[3-(4-Imidazolyl)-propenoyl]-L-lysyl-gamma-D-glutamyl}indoline-2(S)-carboxylic acid] |
| 7.64 | NCCCC[C@H](NC(=O)c1ccco1)C(=O)N[C@H](CCC(=O)N1c2ccccc2C[C@H]1C(=O)O)C(=O)O [Example 8, 1-[N^2-(2-Furoyl)-L-lysyl-gamma-D-glutamyl]indoline-2(S)-carboxylic acid] |
| 8.08 | NCCCC[C@H](NC(=O)OC1CCCCC1)C(=O)N[C@H](CCC(=O)N1c2ccccc2C[C@H]1C(=O)O)C(=O)O [Example 4, 1-(N^2 -Cyclohexyloxycarbonyl-L-lysyl-gamma-D-glutamyl)indoline-2(S)-carboxylic acid] |
| 8.29 | NCCCC[C@H](NC(=O)OC1CCCC1)C(=O)N[C@H](CCC(=O)N1c2ccccc2C[C@H]1C(=O)O)C(=O)O [Example 37, 1-(N^2 -Cyclopentyloxycarbonyl-L-lysyl-gamma-D-glutamyl)indoline-2(S)-carboxylic acid] |
| 7.96 | COc1ccc(CCOC(=O)N[C@@H](CCCCN)C(=O)N[C@H](CCC(=O)N2c3ccccc3C[C@H]2C(=O)O)C(=O)O)cc1 [Example 28, 1-[N^2-(4-Methoxyphenylethoxycarbonyl)-L-lysyl-gamma-D-glutamyl]indoline-2(S)-carboxylic acid] |
| 8.27 | NCCCC[C@H](NC(=O)c1ccccc1)C(=O)N[C@H](CCC(=O)N1[C@H](C(=O)O)C[C@@H]2CCCC[C@@H]21)C(=O)O [Example 27, (2S,3aS,7aS)-1-(N^2 -Benzoyl-L-lysyl-gamma-D-glutamyl)octahydro-1H-indole-2-carboxylic acid] (Bz-Lys-[d(γGlu)]-[Oic]-OH) |
| 8.10 | NCCCC[C@H](NC(=O)OCCC1CCCCC1)C(=O)N[C@H](CCC(=O)N1c2ccccc2C[C@H]1C(=O)O)C(=O)O [Example 34, 1-(N^2 -Cyclohexylethoxycarbonyl-L-lysyl-gamma-D-glutamyl)indoline-2(S)-carboxylic acid] |

| Structure (SMILES) | pIC50 |
| --- | --- |
| NCCCC[C@H](NC(=O)c1cccnc1)C(=O)N[C@H](CCC(=O)N1[C@H](C(=O)O)C[C@@H]2CCCC[C@@H]21)C(=O)O [Example 69, Monosodium (2S,3aS,7aS)-1-(N^2-nicotinoyl-L-lysyl-gamma-D-glutamyl)octahydro-1H-indole-2-carboxylate] (Nicotinoyl-Lys-[d(γGlu)]-[Oic]-OH) | 8.11 |
